Measured values reported in patent US7659273B2, “Composition for accelerating bone fracture healing” (Mitsubishi Tanabe Pharma Corporation, priority 2001, dated 2010).

Tests used:
[1] = system: fibula fracture region of streptozotocin-induced diabetic rats; assay: Acceleration of fracture healing in diabetic rat (Experimental Example 7); type: in vivo; details: Example 7-(1) microspheres; for Bone mineral content: 6 weeks after sutura, DXA at fracture region; for Breaking Energy / Breaking force: 6 weeks, three-point bending test
Protocol: CD (SD) IGS rats (Charles River Japan, Inc.; male; 7-week-old) were housed for seven days at room temperature (23±2° C.) and 55±15% humidity. During the housing period, the rats were free to access commercially available food (from Oriental Bio Service; CRF-1).
Streptozotocin (Sigma), which induce diabetes, was dissolved in citrate-buffered saline (pH 4.5) to obtain 0.05 M streptozocin solution and injected intravenously to each rat at 60 mg/kg. One week later, blood was collected from tail end and blood-glucose level was determined with a blood-glucose monitor (Molecular Devices; M-SPmax250). Based on the measurements, rats were divided into groups so that a significant difference in glucose level may not occur among groups. The average blood-glucose level was from 426.12 to 428.23 mg/dl.
Under ether anesthesia, the left-lower legs of rats were shaved and sterilized with 70% aqueous ethanol, fibulas were exposed with scissors and cut with nail scissors (Natsume Seisakusyo; B17). The cut sections of the fibula were re-matched with tweezers. For the test groups (12 rats/group), the drug-containing microspheres prepared in Example 7-(1), which contains 0.03 or 0.1 mg of Compound (2), were placed around the cutting site using spatula followed by suturing with silk thread. For the control group (12 rats/group), the same amount of drug-free microspheres prepared in Control Example 2 were placed around the cutting site using spatula followed by suturing with silk thread. Following the suturing, every animal was sterilized with 70% aqueous ethanol. After six weeks from the sutura, under ether anesthesia, rats were sacrificed by laparotomy with bleeding, and the fibulas were excised.
Eight fibulas were randomly selected from those excised at 6 weeks after sutura and subjected to DXA bone densitometer (from Aloka; DCS-600) to determine bone mineral density and bone mineral content at fracture region, (scanning width: 1 mm).
(§1) The fibula used in the determination of mineral content was subjected to a three-point bending test with bone strength tester (from Muromachi Kikai Co., Ltd.; TK-252C) to determine bone strength. Briefly, the fibula was supported by two supports apart from each other by 8 mm and the cut section was positioned at the middle of these supports, i.e., 4 mm apart from the respective two supports. Loading (3 mm/minute) from upper direction was kept on the middle point (fracture section) of fibula until fibula begins to fracture. The maximum pressure necessary to break the bone was defined as the breaking force. The total energy spent to break the bone was defined as the breaking energy.
Four fibulas excised at 6 weeks after sutura was photographed with micro focus magnification radiography system (Fuji Photo Film Co. Ltd.; μFX-1000; tube voltage: 25 kV; tube current: […]; 20 seconds).

fibula fracture region = assay: Acceleration of fracture healing in normal rats, Compound (2) microspheres (Experimental Example 2); type: in vivo, rat; details: Example 7 microspheres; for Fibula Bone Mineral Content / Fibula Bone Volume / Fibula Bone Mineral Density: 2 weeks after suturing; for Fibula Bone Mineral Density: DXA at fracture region; for Breaking Energy: 4 weeks after suturing, three-point bending test
Protocol: CD (SD) IGS rats (Charles River Japan, Inc.; male; 7-week-old) were housed for seven days at room temperature (23±2° C.) and 50±20% humidity. During the housing period, the rats were free to access commercially available food (from Oriental Bio; CE-2).
Under ether anesthesia, the left-lower legs of rats were shaved and sterilized with 70% aqueous ethanol; fibulas were exposed with scissors and cut with nail scissors (Natsume Seisakusyo; B17). The cut sections of the fibula were re-matched with tweezers. For the test groups (15 rats/group), the drug-containing microspheres prepared in Example 7, which contains 0.004, 0.02, 0.1 or 0.5 mg of Compound (2), were placed around the cutting site using spatula followed by suturing with silk thread. For the control group (15 rats/group), the same amount of drug-free microspheres prepared in Control Example 2 were placed around the cutting site using spatula followed by suturing with silk thread. Following the suturing, every animal was sterilized with 70% aqueous ethanol. Five rats at two weeks later and 10 rats at four weeks later were taken from each group and sacrificed by laparotomy with bleeding under ether anesthesia and the fibulas were excised.
The fibula excised at 2 weeks after suturing was subjected to DXA bone densitometer (from Aloka; DCS-600) to determine bone mineral density and bone mineral content at fracture region (scanning width: 1 mm).
The volume of fibula excised at 2 weeks after suturing was determined using Plethysmometer (Muromachi Kikai Co., Ltd.; TK-101).
as §1, with “excised at 4 weeks after suturing” for “used in the determination of mineral content”, “breaking force […]” for “maximum pressure necessary to break”, “[…]” for “the bone was defined as the breaking force. The”

CCOc1cc2cc(CO)c(CO)c(-c3ccnc(-n4nc(-c5cccnc5)c5ccccc5c4=O)c3)c2cc1OCC [Compound (2)]
Bone mineral content ([1]; drug content 0.03 mg): 13.69 ± 0.96 mg
Breaking Energy ([1]; drug content 0.03 mg): 1.53 ± 0.39 mJ
Breaking force ([1]; drug content 0.03 mg): 8.13 ± 1.20 N
Bone mineral content ([1]; drug content 0.1 mg): 14.60 ± 0.69 mg
Breaking Energy ([1]; drug content 0.1 mg): 2.91 ± 0.82 mJ
Breaking force ([1]; drug content 0.1 mg): 11.75 ± 2.14 N
Fibula Bone Mineral Content (fibula fracture region; drug content 0.004 mg): 15.90 ± 1.88 mg
Fibula Bone Volume (fibula fracture region; drug content 0.004 mg): 85.0 ± 8.14 µL
Fibula Bone Mineral Density (fibula fracture region; drug content 0.004 mg): 46.18 ± 3.18 mg/cm^2
Breaking Energy (fibula fracture region; drug content 0.004 mg): 2.66 ± 0.49 mJ
Fibula Bone Mineral Content (fibula fracture region; drug content 0.02 mg): 19.86 ± 1.75 mg
Fibula Bone Volume (fibula fracture region; drug content 0.02 mg): 97.6 ± 4.99 µL
Fibula Bone Mineral Density (fibula fracture region; drug content 0.02 mg): 50.72 ± 2.68 mg/cm^2
Breaking Energy (fibula fracture region; drug content 0.02 mg): 2.59 ± 0.55 mJ
Fibula Bone Mineral Content (fibula fracture region; drug content 0.1 mg): 23.10 ± 2.72 mg
Fibula Bone Volume (fibula fracture region; drug content 0.1 mg): 121.6 ± 13.76 µL
Fibula Bone Mineral Density (fibula fracture region; drug content 0.1 mg): 56.06 ± 4.19 mg/cm^2
Breaking Energy (fibula fracture region; drug content 0.1 mg): 3.15 ± 0.54 mJ
Fibula Bone Mineral Content (fibula fracture region; drug content 0.5 mg): 23.24 ± 2.97 mg
Fibula Bone Volume (fibula fracture region; drug content 0.5 mg): 132.2 ± 11.72 µL
Fibula Bone Mineral Density (fibula fracture region; drug content 0.5 mg): 52.18 ± 4.36 mg/cm^2
Breaking Energy (fibula fracture region; drug content 0.5 mg): 3.27 ± 0.61 mJ
